# From the NIST ThermoML archive (doi:10.1021/je800481n)
# ± gives the expanded uncertainty stated by the source.
# Key:
# [1] = Boiling temperature at pressure P; details: 101.3 kPa; Liquid; Ebulliometric method (Recirculating still)
# [2] = refractive index (Na D-line) (dimensionless); details: 101.3 kPa, Liquid, Standard Abbe refractometry
Structure (SMILES),Boiling temperature at pressure P [1],refractive index ([2]; 298.15 K),refractive index ([2]; 301.15 K)
"CC(=O)N(C)C [N,N-dimethylethanamide]",165.62 ± 0.12 °C,1.43507 ± 0.00051,–
CNC(C)=O [N-methylacetamide],206.00 ± 0.12 °C,–,1.42854 ± 0.00037
CC(C)c1ccccc1 [isopropylbenzene],152.29 ± 0.12 °C,1.48829 ± 0.00037,–
